# Experimental data as given in US20140377337A1 (priority 2012, published 2014).
# Columns and labels:
# high myopia = details: intravenously administered PGE1, conclusion of the cited publication; cited from earlier work
# ocular district = test: Blood flow / anti-ischemic effect in the ocular district after PGE1 cream on the inner forearm; assay type: in vivo, patient
smiles,measurement,setting,value
"CCCCC[C@H](O)/C=C/[C@H]1[C@H](O)CC(=O)[C@@H]1CCCCCCC(=O)O [PGE1, prostaglandin E1]",duration of the effect of the intravenous administration,high myopia,6-8 weeks
same,anti-ischemic effects in the ocular district versus 60 micrograms of PGE1 by intravenous infusion,"ocular district; cream 20 μg per ml, patient weighing 60 kg, total dose 4 ml of cream (80 μg total of PGE1), transdermal",comparable
same,effect on blood flow at the ocular district level,"ocular district; cream with 10-30 micrograms of PGE1 per ml, applied on the inner forearm",increased blood flow
